In patent publication US8557574B2, “Fungal growth inhibitor” (Seikagaku Corporation, priority 2006, dated 2013):

Tests used:
[1] = system: Candida glabrata ATCC 2001, Candida krusei ATCC 6258 and Candida tropicalis ATCC 4563; experiment: Activity of inhibiting growth for various Candida species by HA (absorbance at 660 nm); format: cell-based; conditions: other Candida species 5×10^5 cells/mL, 9 hours with HA of 2,000 kDa; FIG. 5
Experimental: Additionally, other Candida species (Candida glabrata ATCC 2001, Candida krusei ATCC 6258 and Candida tropicalis ATCC 4563) were prepared by allowing them to grow at 37° C. overnight in the GP broth under an aerobic condition. Culture mixtures of these Candida species (cell density: 5×10^5) were incubated at 37° C. for 9 hours under a condition of 10% CO2 together with various final concentrations (0.1 mg/mL, 1.0 mg/mL) of HA having a weight average molecular weight of 2,000 kDa.
(§1) After completion of the incubation, in order to evaluate the degree of growth of each Candida species, the culture medium was thoroughly mixed, and its absorbance at a wavelength of 660 nm was measured. Hereinafter, absorbance of the sample incubated in the presence of HA is referred to as “ODtest”. As a control, the absorbance at a wavelength of 660 nm was measured using a sample of each Candida species incubated in the same manner in the absence of HA. Hereinafter, absorbance of this control is referred to as “ODcontrol”.
(§2) Growth inhibition ratio (%) was calculated from the value of “ODtest” and the value of “ODcontrol” of its corresponding Candida species based on the following formula. Growth inhibition ratio (%)=(1−ODtest/ODcontrol)×100 (1-5-2) Quantitative Plate Count […]

Candida albicans [2] = experiment: Living body staining of Candida species (FDA/PI); format: cell-based; conditions: conclusion from living body staining
Experimental: Co-culturing of an epithelial cell with a Candida species (effector:target ratio (to be referred to as “E:T” hereinafter) is 20:1, 40:1 or 80:1) was carried out in 100 μl of a medium using a 96 well plate (manufactured by Costar). After 9 hours of incubation, the co-culture mixture was recovered and washed twice. Fluorescein diacetate (which stain living cells, to be referred to as “FDA” hereinafter) (50 μg/mL) and propidium iodide (which stain dead cells, to be referred to as “PI” hereinafter)(1 μg/mL) (both manufactured by Sigma) (Adv. Biochem. Eng. Biotechnol., 62, p. 33-73 (1998), Anal. Chem., 37, p. 1219-1221 (1965)) were simultaneously added to the pellet of cells and incubated at room temperature for 20 minutes in the dark. In this connection, optimum concentrations of the respective pigments were determined by a preliminary test.
After the incubation, the co-culture mixture was washed with PBS and then with PBS containing 20% FCS, respectively, and then again washed with PBS. The pellet was resuspended in 100 μl, of PBS, and a 5 μL thereof was put on a slide glass and observed under a fluorescent phase contrast microscope (DP-70 manufactured by Olympus Corporation). Growth inhibition of Candida species by the epithelial cell was confirmed by 9 hours of a growth inhibition assay. […]

Candida albicans [3] = experiment: Analysis of the activity of inhibiting Candida growth of HA (absorbance at 660 nm); format: cell-based; conditions: Candida albicans 5×10^5 cells/mL, 9 hours with HA of various concentration (0.1, 1.0 mg/mL) and weight average molecular weight; FIG. 3
Experimental: Co-culture of HA and Candida was carried out in 100 μl of a medium using a 96 well plate (manufactured by Iwaki). Candida albicans was prepared by growing it at 37° C. overnight in the GP broth under an aerobic condition. The Candida albicans culture mixture was incubated at 37° C. for 9 hours under a condition of 10% CO2 in the presence of various final concentrations (0.1 mg/mL, 1.0 mg/mL) of HA having various sizes (tetradecasaccharide, weight average molecular weight 60 kDa, 250 kDa, 800 kDa or 2,000 kDa).
as §1, §2

KB cells = experiment: MTT assay of hyaluronidase-treated cells; format: cell-based, human; conditions: hyaluronidase 10, 20 or 100 units/mL, data not shown
Experimental: (§3) Assay of living cells was carried out in the same manner as in the reported reference (Infect. Immun., 69, p. 5925-5930 (2001)).
(§4) In briefly describing, firstly, the COS-7 and KB cells were plated on a 96 well plate at a density of 5×10^5 cells/mL. Hyaluronidase (manufactured by Sigma) haying a respective concentration of 10, 20 or 100 units/mL was added to it, and Candida albicans was cultured for 20 hours. MTT solution (20 μg/mL) was added to each well at the final stage of the culturing, and the contents of the plate were incubated for 4 hours. By adding 100 μL of acidic isopropanol (isopropanol containing 0.04M HCl) to this, the red formazan was eluted and thoroughly mixed. Formazan concentration in the solution of each well was measured by a plate reader (manufactured by Dynex) using 570 nm as the testing wavelength and 620 nm as the reference wave length, respectively.

Candida albicans [4] = experiment: Candida growth inhibition by cells after removal of cell surface HA with hyaluronidase (quantitative plate count); format: cell-based; conditions: various concentrations of hyaluronidase, E:T 80:1, FIG. 2
Experimental: The cells were treated using hyaluronidase (manufactured by Sigma) (50 units/10^6 cells) at 37° C. for 2 hours (J. Oral Sci., 45, p. 85-91 (2003)). The cells after the treatment were washed twice with phosphate buffered saline (pH 7.2, to be referred to as “PBS” hereinafter) and re-suspended in DMEM.
In order to monitor growth inhibition of Candida albicans, a quantitative plate count method was used (J. Infect. Dis., 182, p. 1479-1485 (2000), Infect. Immun., 69, p. 7091-7099 (2001), Med. Mycol., 37, p. 251-259 (1999)). In briefly describing, a co-culture mixture of the same effector and target was incubated at 37° C. for 9 hours under a condition of 5% CO2. […] It was incubated at 30° C. for 48 hours, and the colony forming unit (to be referred to as “CFU” hereinafter) was counted. Hereinafter, counted value of CFU of the sample incubated in the presence of HA is referred to as “test CFU”.
As a control, respective Candida species was incubated in the absence of HA, and this was subjected to the plating in the same manner. Hereinafter, counted value of CFU on the sample is referred to as “control CFU”.
Growth inhibition ratio (%) was calculated from the value of “test CFU” and the value of “control CFU” of its corresponding Candida species based on the following formula. […]

COS-7 = experiment: MTT assay of hyaluronidase-treated cells; format: cell-based, Cercopithecus aetiopus; conditions: COS-7 cells, hyaluronidase 10, 20 or 100 units/mL; data not shown
Experimental: as §3, §4

## hyaluronic acid [HA]
[1]
  activity of inhibiting growth for other Candida species (growth inhibition ratio): exerts its activity of inhibiting growth
Candida albicans [2]
  nature of the activity of inhibiting Candida growth (bactericidal or bacteriostatic): not bactericidal but rather bacteriostatic
Candida albicans [3]
  activity of inhibiting the Candida albicans growth (growth inhibition ratio): has activity of inhibiting the Candida albicans growth

## hyaluronidase
KB cells
  influence upon the life or death of the cells (MTT): does not exert influence upon the life or death of the cells
Candida albicans [4]
  activity of inhibiting Candida growth of the COS-7 cell after hyaluronidase treatment: reduced
COS-7
  influence upon the life or death of the cells (MTT): does not exert influence upon the life or death of the cells
